Assay results taken from US11648254B2 (Kumquat Biosciences Inc., priority 2021, dated 2023).
Like-named read-outs stand apart in the source and are kept apart here. Values belong to the molecule of their own block, whether it stands above or below them.

Assays:
[1] = molecular target: SOS1 (Homo sapiens (Human), UniProt Q07889); experiment: Ras-SOS interaction assay (HTRF); format: biochemical
[2] = tested on: MIA PaCa-2 cells (K-Ras G12C); experiment: Ras-SOS cellular growth inhibition assay (CellTiter-Glo, 3D); format: cell-based; details: Homo sapiens
Method in brief: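 Growth read by CellTiter-Glo luminescence about 5 days after dosing with 3-fold dilutions (9 points), added one day post-seeding. Cells: MIA PaCa-2, 3D culture on ultra-low-attachment surface, medium DMEM/Ham's F12 plus 10% FCS and 2.5% horse serum; IC50 by four-parameter fit.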

[3] = tested on: NCI-H1975 cells (EGFR T790M L858R); experiment: EGFR-SOS cellular inhibition assay (CellTiter-Glo, 3D); format: cell-based; details: Homo sapiens
[4] = K-RasG13D utilized, read-out: IC50 inhibition of SOS
[5] = K-RasG13D, read-out: IC50 value against SOS1
[6] = MIA PaCa-2, 120 h, MIA PaCa-2, 3D proliferation, about 5 days, read-out: Bio-Cell-Prolif-3D (MiaPaca2 IC50)
[7] = MIA PaCa-2, MIA PaCa-2, read-out: IC50 in inhibiting MIA PaCa-2 cell growth
[8] = 120 h, NCI-H1975, 3D proliferation, about 5 days, read-out: Bio-Cell-Prolif-3D (H1975 IC50)
[9] = NCI-H1975, EGFR T790M L858R, read-out: IC50 in inhibiting growth of NCI-H1975 cell line

SOS1, sequence (Q07889 564-1049): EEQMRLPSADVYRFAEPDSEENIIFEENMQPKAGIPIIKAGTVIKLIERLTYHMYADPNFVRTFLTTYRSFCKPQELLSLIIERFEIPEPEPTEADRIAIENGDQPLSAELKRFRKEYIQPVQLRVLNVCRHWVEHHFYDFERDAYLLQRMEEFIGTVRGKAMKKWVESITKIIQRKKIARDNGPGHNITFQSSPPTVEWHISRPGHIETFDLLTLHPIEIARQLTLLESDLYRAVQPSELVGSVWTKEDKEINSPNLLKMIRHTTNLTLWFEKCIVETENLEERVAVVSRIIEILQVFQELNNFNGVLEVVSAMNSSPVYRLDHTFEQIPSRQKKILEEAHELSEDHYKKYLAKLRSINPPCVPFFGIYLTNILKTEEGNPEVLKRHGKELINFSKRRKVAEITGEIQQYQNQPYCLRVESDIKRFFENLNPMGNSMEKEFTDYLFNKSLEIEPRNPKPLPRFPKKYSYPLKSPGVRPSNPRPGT

Structure (SMILES): COc1nc2ncnc(N[C@H](C)c3cccc(C(F)(F)F)c3C)c2cc1N1CCN(C)CC1 [Compound 386, (R)-7-methoxy-N-(1-(2-methyl-3-(trifluoromethyl)phenyl)ethyl)-6-(4-methylpiperazin-1-yl)pyrido[2,3-d] pyrimidin-4-amine]
IC50 [1, 4]: < 100 nM
IC50 [1, 5]: < 50 nM
IC50 [2, 6]: ≤ 1000 nM
IC50 [2, 7]: < 500 nM
IC50 [3, 8]: ≤ 1000 nM
IC50 [3, 9]: < 500 nM

Structure (SMILES): Cc1nc(N[C@H](C)c2cccc(C(F)(F)F)c2F)c2cc(N3CCN(C(C)C)CC3)c(Cl)nc2n1 [Compound 387, (R)-7-chloro-N-(1-(2-fluoro-3-(trifluoromethyl)phenyl)ethyl)-6-(4-isopropylpiperazin-1-yl)-2-methylpyrido[2,3-d] pyrimidin-4-amine]
IC50 [1, 4]: < 100 nM
IC50 [1, 5]: < 50 nM
IC50 [2, 6]: ≤ 1000 nM
IC50 [2, 7]: < 500 nM
IC50 [3, 8]: ≤ 1000 nM
IC50 [3, 9]: < 500 nM

Structure (SMILES): Cc1nc(N[C@H](C)c2cccc(C(F)(F)F)c2C)c2cc(C3CCS(=O)(=O)CC3)c(Cl)nc2n1 [Compound 388, (R)-4-(7-chloro-2-methyl-4-((1-(2-methyl-3-(trifluoromethyl)phenyl)ethyl)amino)pyrido[2,3-d]pyrimidin-6-yl)tetrahydro-2H-thiopyran 1,1-dioxide]
IC50 [1, 4]: < 100 nM
IC50 [1, 5]: < 50 nM
IC50 [2, 6]: ≤ 1000 nM
IC50 [2, 7]: < 500 nM
IC50 [3, 8]: ≤ 1000 nM
IC50 [3, 9]: < 500 nM

Structure (SMILES): Cc1nc(N[C@H](C)c2cccc(C(F)F)c2F)c2cc(C3CCS(=O)(=O)CC3)c(Cl)nc2n1 [Compound 389, (R)-4-(7-chloro-4-((1-(3-(difluoromethyl)-2-fluorophenyl)ethyl)amino)-2-methylpyrido[2,3-d]pyrimidin-6-yl)tetrahydro-2H-thiopyran 1,1-dioxide]
IC50 [1, 4]: < 100 nM
IC50 [1, 5]: < 50 nM
IC50 [2, 6]: ≤ 1000 nM
IC50 [2, 7]: < 500 nM
IC50 [3, 8]: ≤ 1000 nM
IC50 [3, 9]: < 500 nM

Structure (SMILES): Cc1nc(N[C@H](C)c2cccc(C(F)(F)F)c2C)c2cc(N3CCS(=O)(=O)CC3)c(Cl)nc2n1 [Compound 390, (R)-4-(7-chloro-2-methyl-4-((1-(2-methyl-3-(trifluoromethyl)phenyl)ethyl)amino)pyrido[2,3-d]pyrimidin-6-yl) thiomorpholine 1,1-dioxide]
IC50 [1, 4]: < 100 nM
IC50 [1, 5]: < 50 nM
IC50 [2, 6]: ≤ 1000 nM
IC50 [2, 7]: < 500 nM
IC50 [3, 8]: ≤ 1000 nM
IC50 [3, 9]: < 500 nM

Structure (SMILES): Cc1nc(N[C@H](C)c2cccc(C(F)(F)F)c2F)c2cc(C3CCN(C(C)C)CC3)c(Cl)nc2n1 [Compound 391, (R)-7-chloro-N-(1-(2-fluoro-3-(trifluoromethyl)phenyl)ethyl)-6-(1-isopropylpiperidin-4-yl)-2-methylpyrido[2,3-d] pyrimidin-4-amine]
IC50 [1, 4]: < 100 nM
IC50 [1, 5]: < 50 nM
IC50 [2, 6]: ≤ 1000 nM
IC50 [2, 7]: < 500 nM
IC50 [3, 8]: ≤ 1000 nM
IC50 [3, 9]: < 500 nM

Structure (SMILES): Cc1nc(N[C@H](C)c2cccc(C(F)(F)F)c2C)c2cc(C3CCN(C(C)C)CC3)c(Cl)nc2n1 [Compound 392, (R)-7-chloro-6-(1-isopropylpiperidin-4-yl)-2-methyl-N-(1-(2-methyl-3-(trifluoromethyl)phenyl)ethyl)pyrido [2,3-d]pyrimidin-4-amine]
IC50 [1, 4]: < 100 nM
IC50 [1, 5]: < 50 nM
IC50 [2, 6]: ≤ 1000 nM
IC50 [2, 7]: < 500 nM
IC50 [3, 8]: ≤ 1000 nM
IC50 [3, 9]: < 500 nM

Results, then the molecule that gave them:

IC50 [1, 4]: < 100 nM
IC50 [1, 5]: < 50 nM
IC50 [2, 6]: ≤ 1000 nM
IC50 [2, 7]: < 500 nM
IC50 [3, 8]: ≤ 1000 nM
IC50 [3, 9]: < 500 nM
Structure (SMILES): C[C@@H](Nc1ncnc2nc(Cl)c(C3CCS(=O)(=O)CC3)cc12)c1cccc(C(F)F)c1F [Compound 393, (R)-4-(7-chloro-4-((1-(3-(difluoromethyl)-2-fluorophenyl)ethyl)amino)pyrido [2,3-d]pyrimidin-6-yl)tetrahydro-2H-thiopyran 1,1-dioxide]

IC50 [1, 4]: < 100 nM
IC50 [1, 5]: < 50 nM
IC50 [2, 6]: ≤ 1000 nM
IC50 [2, 7]: < 500 nM
IC50 [3, 8]: ≤ 1000 nM
IC50 [3, 9]: < 500 nM
Structure (SMILES): CC(C)N1CCN(c2cc3c(N[C@H](C)c4cccc(C(F)(F)F)c4F)ncnc3nc2Cl)CC1 [Compound 394, (R)-7-chloro-N-(1-(2-fluoro-3-(trifluoromethyl)phenyl)ethyl)-6-(4-isopropylpiperazin-1-yl)pyrido[2,3-d] pyrimidin-4-amine]

IC50 [1, 4]: < 100 nM
IC50 [1, 5]: < 50 nM
IC50 [2, 6]: ≤ 1000 nM
IC50 [2, 7]: < 500 nM
IC50 [3, 8]: ≤ 1000 nM
IC50 [3, 9]: < 500 nM
Structure (SMILES): Cc1c([C@@H](C)Nc2ncnc3nc(Cl)c(N4CCN(C(C)C)CC4)cc23)cccc1C(F)(F)F [Compound 395, (R)-7-chloro-6-(4-isopropylpiperazin-1-yl)-N-(1-(2-methyl-3-(trifluoromethyl)phenyl)ethyl)pyrido [2,3-d]pyrimidin-4-amine]

IC50 [1, 4]: < 100 nM
IC50 [1, 5]: < 50 nM
IC50 [2, 6]: ≤ 1000 nM
IC50 [2, 7]: < 500 nM
IC50 [3, 8]: ≤ 1000 nM
Structure (SMILES): Cc1nc(N[C@H](C)c2cccc(C(F)F)c2F)c2cc(C3(C#N)CC3)c(N3CCOCC3)nc2n1 [Compound 396, (R)-1-(4-((1-(3-(difluoromethyl)-2-fluorophenyl)ethyl)amino)-2-methyl-7-morpholinopyrido[2,3-d]pyrimidin-6-yl)cyclopropane-1-carbonitrile]

IC50 [1, 4]: < 100 nM
IC50 [1, 5]: < 50 nM
IC50 [2, 6]: ≤ 1000 nM
IC50 [2, 7]: < 500 nM
IC50 [3, 8]: ≤ 1000 nM
IC50 [3, 9]: < 500 nM
Structure (SMILES): Cc1nc(N[C@H](C)c2cccc(C(F)F)c2F)c2cc(N3CCN(C)CC3)c(OCC3COC3)nc2n1 [Compound 397, (R)-N-(1-(3-(difluoromethyl)-2-fluorophenyl)ethyl)-2-methyl-6-(4-methylpiperazin-1-yl)-7-(oxetan-3-ylmethoxy)pyrido[2,3-d]pyrimidin-4-amine]

IC50 [1, 4]: < 100 nM
IC50 [1, 5]: < 50 nM
IC50 [2, 6]: 1000 to 10000 nM
IC50 [3, 8]: ≤ 1000 nM
Structure (SMILES): CCN1CCC(c2cc3c(N[C@H](C)c4cccc(C(F)F)c4F)nc(C)nc3nc2OCCN(C)C)CC1 [Compound 399, (R)-N-(1-(3-(difluoromethyl)-2-fluorophenyl)ethyl)-7-(2-(dimethylamino)ethoxy)-6-(1-ethylpiperidin-4-yl)-2-methylpyrido[2,3-d] pyrimidin-4-amine]

IC50 [1, 4]: < 100 nM
IC50 [1, 5]: < 50 nM
IC50 [2, 6]: 1000 to 10000 nM
IC50 [3, 8]: ≤ 1000 nM
Structure (SMILES): Cc1nc(N[C@H](C)c2cccc(C(F)F)c2F)c2cc(C3CCS(=O)(=O)CC3)c(NC3COC3)nc2n1 [Compound 401, (R)-4-(4-((1-(3-(difluoromethyl)-2-fluorophenyl)ethyl)amino)-2-methyl-7-(oxetan-3-ylamino)pyrido[2,3-d]pyrimidin-6-yl)tetrahydro-2H-thiopyran 1,1-dioxide]

IC50 [1, 4]: < 100 nM
IC50 [1, 5]: < 50 nM
IC50 [2, 6]: 1000 to 10000 nM
IC50 [3, 8]: 1000 to 10000 nM
Structure (SMILES): CNCCOc1nc2nc(C)nc(N[C@H](C)c3cccc(C(F)F)c3F)c2cc1C1CCN(C(C)C)CC1 [Compound 404, (R)-N-(1-(3-(difluoromethyl)-2-fluorophenyl)ethyl)-6-(1-isopropylpiperidin-4-yl)-2-methyl-7-(2-(methylamino)ethoxy)pyrido[2,3-d] pyrimidin-4-amine]

IC50 [1, 4]: < 100 nM
IC50 [1, 5]: < 50 nM
IC50 [2, 6]: ≤ 1000 nM
IC50 [2, 7]: < 500 nM
IC50 [3, 8]: ≤ 1000 nM
IC50 [3, 9]: < 500 nM
Structure (SMILES): CNCCOc1nc2nc(C)nc(N[C@H](C)c3cccc(C(F)F)c3F)c2cc1N1CCN(C(C)C)CC1 [Compound 406, (R)-N-(1-(3-(difluoromethyl)-2-fluorophenyl)ethyl)-6-(4-isopropylpiperazin-1-yl)-2-methyl-7-(2-(methylamino)ethoxy)pyrido[2,3-d] pyrimidin-4-amine]
